Read-outs that look alike come from different tables or passages of the source.
How the values were obtained:
[1] = Comparative intrinsic dissolution testing (Wood apparatus); assay type: physicochemical; settings: 900 mL deionized water, 75 rpm, sample compressed at 1.5 metric tons for 1 minute
Protocol: Intrinsic dissolution rate (IDR) measurements were performed using a Wood apparatus. Samples were prepared by compressing 250-300 mg sample at 1.5 metric tons for 1 minute. A dissolution medium consisting of 900 mL deionized water, and rotation speed of 75 rpm, was used for each experiment.

[2] = uncapped samples, 40° C./75% RH
Protocol: PXRD diffractograms were recorded on a Bruker D8 Discover powder X-ray diffractometer (Bruker AXS LLC, Karlsruhe, Germany). The generator was a Incoatec Microfocus Source (IμS) Cu tube (λ=1.54060 Å) with a voltage of 50 kV and current of 1.00 mA, using a divergence slit of 0.1 mm and collimator of 2.0 mm. For each sample, two frames were collected using a still scan with a PILATUS3 R 100K-A detector at the distance of 294.2 mm from the sample. Raw data were evaluated using the program DIFFRAC.EVA (Bruker AXS LLC, Karlsruhe, Germany).

[3] = pH values 1.2, 4.5 and 6.8
[4] = per CDER review, NDA 202192; cited from earlier work

Row | SMILES | Intrinsic Dissolution Rate [1] [mg min^−1 cm^−2] | Change in the crystalline form (PXRD) ([2]; at least 5 months) | further results
1 | CC1=CC(=O)NS(=O)(=O)O1.N#CCC(C1CCCC1)n1cc(-c2ncnc3[nH]ccc23)cn1 (stereo not shown) [Ruxolitinib acesulfamate Form APO-II] | 0.0767 | no change in the crystalline form occurred | –
2 | CC1=CC(=O)NS(=O)(=O)O1.N#CC[C@H](C1CCCC1)n1cc(-c2ncnc3[nH]ccc23)cn1 [Ruxolitinib acesulfamate Form APO-I] | 0.2261 | – | Change in the crystalline form (PXRD) ([2]; 8 weeks): no change in the crystalline form occurred
3 | N#CCC(C1CCCC1)n1cc(-c2ncnc3[nH]ccc23)cn1.O=S(=O)(O)CCS(=O)(=O)O (stereo not shown) [Ruxolitinib edisylate Form APO-I] | 0.1711 | no change in the crystalline form occurred | –
4 | CS(=O)(=O)O.N#CC[C@H](C1CCCC1)n1cc(-c2ncnc3[nH]ccc23)cn1 [Ruxolitinib mesylate Form APO-I] | – | – | Change in the crystalline form (PXRD) ([2]; at least 8 months): no change in the crystalline form occurred; Solubility [3]: high solubility
5 | N#CCC(C1CCCC1)n1cc(-c2ncnc3[nH]ccc23)cn1.O=S(=O)(O)c1cccc2c(S(=O)(=O)O)cccc12 (stereo not shown) [Ruxolitinib napadisylate Form APO-I] | – | no change in the crystalline form occurred | –
6 | N#CC[C@H](C1CCCC1)n1cc(-c2ncnc3[nH]ccc23)cn1 [Ruxolitinib phosphate] | 0.0545 | – | Biopharmaceutics Classification System (BCS) class [4]: Class I; Permeability [4]: high permeability; Solubility [4]: high solubility
